Test results published in patent US11414385B2, “Compounds and methods for treating, detecting, and identifying compounds to treat apicomplexan parasitic diseases” (The University of Chicago, priority 2015, dated 2022).
Where two headings read alike, the source gives them in different places.

Tests used:
bovine cytochrome bc = target: T1, bovine cytochrome bc (Bos taurus, UniProt P00157); experiment: Binding assays with bovine cytochrome bc1
T1 construct: Whole bovine heart was collected directly from slaughter and transported on ice to the cold room; from tissue; host or cells: bovine heart mitochondria, DDM-solubilised, column-purified

[1] = system: T. gondii tachyzoites (RH-YFP strain); experiment: In vitro challenge assay for Toxoplasma tachyzoites (RH-YFP in HFF, fluorescence); type: cell-based, Toxoplasma gondii
Outline: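 Confluent HFF monolayers infected with 3200 RH-YFP tachyzoites for 1-2 h, then compounds added (screen at 10 μM-10 nM; follow-up 1 μM-31.25 nM) and incubated 72 h at 37 °C. YFP fluorescence served as the measure of parasite burden; IC50 by graphical analysis.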

[2] = system: human foreskin fibroblasts (HFF); experiment: Cytotoxicity assay with WST-1 in HFF; type: cell-based; details: 10 μM and 50 μM, WST-1
Procedure: (§1) Toxicity assays were conducted using WST-1 cell proliferation reagent (Roche). HFF were grown on a flat, clear-bottomed, black 96-well plate. Confluent HFF were treated with inhibitory compounds at concentrations equal to those being tested in challenge assays. Compounds were diluted in IMDM-C, and 20 μl were added to each designated well, with triplicates for each condition. A gradient of 2 fold-decreasing concentrations of DMSO in clear IMDM-C was used as a control. The plate was incubated for 72 hours at 37° C. 10 μl of WST-1 reagent (Roche) were added to each well and the cells were incubated for 30 to 60 minutes. Absorbance was read using a fluorometer at 420 nm. A higher degree of color change (and absorbance) indicated mitochondrial activity and cell viability.
as §1, with “(Roche) as described in Fomovska, et. al. (18,19).” for “(Roche).”, “of 10 μM and 50 μM.” for “equal to those being tested in challenge assays.”, “DMSO from 10% to 0%” for “DMSO”, “fluorimeter” for “fluorometer”

[3] = Cytotoxicity assay with WST-1 in HFF; type: cell-based; details: human, human foreskin fibroblasts (HFF); read-out: HFF Toxicity CC50
Procedure: as §1
as §1, with “(Roche) as described in Fomovska, et. al. (18,19).” for “(Roche).”, “of 10 μM and 50 μM.” for “equal to those being tested in challenge assays.”, “DMSO from 10% to 0%” for “DMSO”, “fluorimeter” for “fluorometer”

[4] = Toxoplasma gondii, RH-YFP, read-out: Tachy IC50

Cc1[nH]c2c(c(=O)c1-c1ccc(Oc3ccc(OC(F)(F)F)cc3)cc1)CCCC2 [JAG21, 2-methyl-3-(4-(4-(trifluoromethoxy)phenoxy)phenyl)-5,6,7,8-tetrahydroquinolin-4(1H)-one]
inhibition of bovine Cytbc1 (bovine cytochrome bc): but not fully
binding affinity to bovine cytochrome bc (bovine cytochrome bc; in comparison with previous compounds): lower binding affinity
IC50 ([1]; Toxoplasma gondii, read-out: IC50 against tachyzoites / active infection): 188 nM
IC50 [1, 4]: 90 nM
IC90 ([1]; Toxoplasma gondii, read-out: IC 90 against Toxoplasma gondii tachyzoites): < 125 nM
toxicity to human foreskin fibroblasts [2]: no toxicity

Cc1[nH]c2c(c(=O)c1-c1ccc(Oc3ccccc3)cc1)CCCC2 [MJM170]
IC50 ([1]; Toxoplasma gondii, RH-YFP strain, read-out: T. gondii Tachyzoite IC50): 30 nM
IC50 [1, 4]: 30 nM
reduction of RH YFP tachyzoites in tissue culture ([1]; low nanoM levels): markedly reduces RH YFP tachyzoites
CC50 at 72 h [3]: 20000 nM
